Laboratory results as given in patent publication US20210059251A1, “PLANT GROWTH REGULATOR COMPOUNDS” (SYNGENTA PARTICIPATIONS AG, priority 2018, published 2021).

Test system: corn leaf
Assay: Dark induced senescence of corn leaf (leaf discs)
Format: cell-based, Corn (variety Multitop)
Conditions: 23° C., 8 days, 0.5% DMSO, image analysis, lower value = higher senescence induction potency; for IC50: Zea mays, foliar, 192 h, read-out: IC50 (concentration at which 50% senescence was achieved)
Procedure: It is known that strigolactones regulate (accelerate) leaf senescence, potentially through D14 receptor signaling. Compounds of the present invention (I) were compared to structurally-related compounds (Z) in a corn leaf dark induced senescence assay. Corn plants of variety Multitop were grown in a greenhouse with relative 75% humidity and at 23-25° C. for 6 weeks. 1.4 cm diameter leaf discs were placed into 24-well plates containing a test compounds in a concentration gradient (100 μM-0.0001 μM) at a final concentration of 0.5% DMSO. Each concentration was tested in 12 replicates. Plates were sealed with seal foil. The foil was pierced to provide gas exchange in each well. The plates were placed into the completely dark climatic chamber. Plates were incubated in the chamber with 75% humidity and at 23° C. for 8 days. On days 0, 5, 6, 7 and 8 photographs were taken of each plate, and image analysis conducted with a macro developed using the ImageJ software. The image analysis was used to determine the concentration at which 50% senescence was achieved (IC50), see Table 7. The lower the value, the higher senescence induction potency.

| Compound | IC50 [nM] | IC50 (concentration at which 50% senescence was achieved) |
| --- | --- | --- |
| CC(=O)N1C(=O)/C(=C/OC2C=C(C)C(=O)O2)C2c3ccccc3CC21 (stereo not shown) [Compound I-1, (1E)-3-acetyl-1-[(4-methyl-5-oxo-2H-furan-2-yl)oxymethylene]-4,8b-dihydro-3aH-indeno[2,1-b]pyrrol-2-one] | 64 |  |
| CC(=O)N1C(=O)/C(=C/OC2OC(=O)C(C)=C2C)C2c3ccccc3CC21 (stereo not shown) [Compound I-5, (1E)-3-acetyl-1-[(3,4-dimethyl-5-oxo-2H-furan-2-yl)oxymethylene]-4,8b-dihydro-3aH-indeno[2,1-b]pyrrol-2-one] | 24 |  |
| CC1=CC(O/C=C2/C(=O)N(c3nccs3)C3Cc4ccccc4C23)OC1=O (stereo not shown) [Compound I-9, (1E)-1-[(4-methyl-5-oxo-2H-furan-2-yl)oxymethylene]-3-thiazol-2-yl-4,8b-dihydro-3aH-indeno[2,1-b]pyrrol-2-one] | 126 |  |
| CC1=CC(O/C=C2/C(=O)N(c3ccccc3)C3Cc4ccccc4C23)OC1=O (stereo not shown) [Compound I-10, (1E)-1-[(4-methyl-5-oxo-2H-furan-2-yl)oxymethylene]-3-phenyl-4,8b-dihydro-3aH-indeno[2,1-b]pyrrol-2-one] | 107 |  |
| CC1=CC(O/C=C2/C(=O)N(CC#N)C3Cc4ccccc4C23)OC1=O (stereo not shown) [Compound I-12-E, 2-[(1E)-1-[(4-methyl-5-oxo-2H-furan-2-yl)oxymethylene]-2-oxo-4,8b-dihydro-3aH-indeno[2,1-b]pyrrol-3-yl]acetonitrile] | 1550 |  |
| CC1=C(C)C(O/C=C2/C(=O)N(c3nccs3)C3Cc4ccccc4C23)OC1=O (stereo not shown) [Compound I-13, (1E)-1-[(3,4-dimethyl-5-oxo-2H-furan-2-yl)oxymethylene]-3-thiazol-2-yl-4,8b-dihydro-3aH-indeno[2,1-b]pyrrol-2-one] | 11.1 |  |
| CC(=O)N1C(=O)/C(=C/OC2OC(=O)C(C)=C2C)C2c3ccccc3OC21 (stereo not shown) [Compound I-25] | 990 |  |
| CC(=O)N1C(=O)/C(=C/OC2C=C(C)C(=O)O2)C2Cc3ccccc3C21 (stereo not shown) [Compound Z1, reference compound] | 110 |  |
| CC(=O)N1C(=O)/C(=C/OC2OC(=O)C(C)=C2C)C2Cc3ccccc3C21 (stereo not shown) [Compound Z1-Me, reference compound] | 30 |  |
| CC1=CC(O/C=C2/C(=O)N(c3nccs3)C3c4ccccc4CC23)OC1=O (stereo not shown) [Compound Z2, reference compound] |  | inactive |
| CC1=C(C)C(O/C=C2/C(=O)N(c3nccs3)C3c4ccccc4CC23)OC1=O (stereo not shown) [Compound Z2-Me, reference compound] |  | inactive |
| CC1=CC(O/C=C2/C(=O)N(c3ccccc3)C3c4ccccc4CC23)OC1=O (stereo not shown) [Compound Z3, reference compound] | 2470 |  |
| CC1=CC(O/C=C2/C(=O)N(CC#N)C3c4ccccc4CC23)OC1=O (stereo not shown) [Compound Z4-E, reference compound] | 3710 |  |
